Laboratory results published in patent publication US20250381143A1, “A SOLID PHARMACEUTICAL COMPOSITION” (ADLAI NORTYE BIOPHARMA CO., LTD., priority 2021, published 2025).

Assay: Biopharmaceutical Classification System class
Assay type: physicochemical
Source text: The present disclosure relates to a quality controllable solid dosage form and a process for its preparation, wherein the solid dosage form comprises a compound of formula 1 4-{(1S)-1-[({3-(difluoromethyl)-1-methyl-5-[3-(trifluoromethyl)phenoxy]-4-1H-pyrazolyl} carbonyl)amino]ethyl}benzoic acid (compound AN0025) and optionally at least one pharmaceutically acceptable carrier. […] The inventor unexpectedly found in the experiment that AN0025 tablets prepared by different processes can show good uniformity in in vitro dissolution experiments, and AN0025 tablets prepared with different API particle sizes have similar in vitro dissolution behavior and in vivo exposure.

SMILES: C[C@H](NC(=O)c1c(C(F)F)nn(C)c1Oc1cccc(C(F)(F)F)c1)c1ccc(C(=O)O)cc1 [AN0025, 4-{(1S)-1-[({3-(difluoromethyl)-1-methyl-5-[3-(trifluoromethyl)phenoxy]-4-1H-pyrazolyl}carbonyl)amino]ethyl}benzoic acid]
- Biopharmaceutical Classification System class: class IV
- solubility (as per BCS class): low solubility
